Laboratory results taken from US20210214731A1, “METHODS FOR TREATING CANCER” (President and Fellows of Harvard College, priority 2019, published 2021).

Assays:
MLL-AF9 AML [1] = assay: In vitro growth of MLL-AF9 AML; assay type: cell-based, mouse; conditions: for effect of inhibitor on in vitro growth of MLL-AF9 with MCT4-KO: combined with MCT4-KO versus control gRNA (FIG. 6D)
Method: Retroviral transduction model of MLL-AF9 or HoxA9-Meis1 AML were generated by infecting normal mouse GMP (Lin^−Kit^+Sca-1^−CD34^+CD16/32^+) (FASC antibodies summarized in Supplemental Table 4) by MSCV constructs. Infected cells were injected into normal C57BL/6J. Leukemic BM was harvested and expanded ex vivo in RPMI-1640 media supplemented with 10% FBS, 1% P/S, recombinant IL-3 (10 ng/ml) and SCF (100 ng/ml).

[2] = system: MCT4 expression in MLL-AF9 AML; assay: MCT4 mRNA (Q-PCR) and protein (Western blot) expression in MLL-AF9 AML upon inhibitor treatment; assay type: cell-based, mouse; conditions: MLL-AF9 AML in vitro (FIG. 9G)
Method: Cells were lyzed in 1×RIPA lysis buffer (Cell Signaling) with protease and phosphatase inhibitors. Cell lysate was centrifuged at 13000 rpm for 10 mins. Supernatant was collected and denatured in SDS-loading buffer with boiling for 10 mins. Cell lysates were separated, transferred and blotted with primary and horseradish peroxidase (HRP)-conjugated secondary antibodies (Supplemental Table 4). Hybridization signals were visualized with Amersham ECL Western blot detection reagents (GE Healthcare Amersham) or Luminata Forte Western HRP substrate (EMD Millipore) and captured by Hyperfilm™ ECL (GE Healthcare Amersham). Densitometric analysis of the bands was performed by ImageJ 1.8.0v.
(§1) Cell was washed twice with PBS and subjected to RNA purification using RNeasy Plus Mini Kit (Qiagen) according to the manufacturers' protocol. Extracted total RNA was then subjected to reverse transcription using SuperScript IV VILO Master Mix (Thermo Fisher Scientific) according to the manufacturers' protocol. Synthesized cDNA was then used for the Q-PCR using gene-specific primers (Supplemental Table 3) and SYBR™ Green PCR Master Mix. The reaction was run and analyzed by StepOnePlus Real-Time PCR System.

MLL-AF9 AML [3] = assay: Glycolysis and Mito stress analysis (Seahorse ECAR/OCR); assay type: cell-based, mouse; conditions: MLL-AF9 AML in vitro, LDHA inhibition (FIG. 6A)
Method: Glycolysis stress and Mito stress of normal Lin^− BM cells and AML were examined by Seahorse XF analyzer (Agilent) according to the manufacturers' protocol. In brief, the suspension cells were seeded onto a Cell-Tak (Corning) coated Seahorse XF Microplate in Seahorse XF Base Medium with appropriate supplement (Glycolysis Stress test: 1 mM glutamine; Mito stress test: 1 mM pyruvate, 2 mM glutamine and 10 mM glucose) and centrifuged at 200×g for 5 mins Different compounds were injected for the ECAR and OCR profiling (Glycolysis Stress test: 10 mM glucose, 1 μM Oligomycin and 50 mM 2DG; Mito Stress test: 1 μM Oligomycin, 0.5 μM FCCP and 0.5 μM Antimycin A). The data was eventually analyzed by Seahorse Wave Desktop 2.6 (Agilent).

MCT4 expression in THP-1 = assay: Q-PCR of MCT4 mRNA expression in THP-1; assay type: cell-based, human; conditions: THP-1 (FIG. 10G)
Source text: (§2) Human AML cell lines (K562, KG1, ML2, Kasumi-1, MOLM-13, MOLM-14, MV4-11, THP-1, MONO-MACE, HL-60, NB4, U937 and NOMO-1) were purchased from the American Type Culture Collection (ATCC) and cultured in RPMI-1640 media supplemented with 10% FBS and 1% penicillin/streptomycin (P/S).
as §1

NOMO-1 = assay: In vitro growth of NOMO-1; assay type: cell-based, human; conditions: NOMO-1 (FIG. 10H)
Source text: as §2

[4] = system: MCT4 expression in NOMO-1; assay: Q-PCR of MCT4 mRNA expression in NOMO-1; assay type: cell-based, human; conditions: NOMO-1 (FIG. 10G)
Source text: as §2, §1

THP-1 = assay: In vitro growth of THP-1; assay type: cell-based, human; conditions: THP-1 (FIG. 10H)
Source text: as §2

[5] = system: MCT4 promoter in MLL-AF9 AML; assay: ChIP-PCR of enrichment on MCT4 promoter in MLL-AF9 AML; assay type: cell-based, mouse
Method: ChIP assays were performed in hematopoietic cells as previously described (Kim et al., 2008) using Pierce™ Protein G Agarose (Thermo Fisher Scientific). In brief, the cell suspension was fixed with 1% formaldehyde for 7 mins then neutralized by glycine. The fixed cell was washed with cold PBS. The cell pellet was then sonicated in SDS ChIP buffer. The supernatant was collected and pre-cleared with protein G agarose. After pre-clearing, a ChIP reaction using different antibodies (1:100, summarized in Supplemental Table 4) was added to the lysate and incubated at 4° C. overnight Immunoprecipitated complexes were successively washed with buffers and then eluted using SDS elution buffer at 65° C. overnight to reverse crosslink protein-DNA complex. The samples were treated with RNase A and Proteinase K, then extracted by phenol-chloroform isoamyl alcohol and precipitated. Finally, the pellet was resuspended in 20 μl TE buffer.
The DNA was then subjected to Q-PCR analysis using specific primers (Supplemental Table 3) and SYBR™ Green PCR Master Mix (Thermo Fisher Scientific). Input genomic DNA was used for the reference sample. The reaction was run and analyzed by StepOnePlus Real-Time PCR System (Thermo Fisher Scientific). Mouse or human Gfi1b was included as a negative control.

In the case of `O=CC[C@@H](O)[C@H](O)[C@H](O)CO` [2DG, 2-deoxyglucose], the “effect of inhibitor on in vitro growth of MLL-AF9 with MCT4-KO” value (MLL-AF9 AML [1]) is reported as “increased the effect”.

For `NC(=O)c1ccc(N)nc1` [6AN, 6-aminonicotinamide], the “effect of inhibitor on in vitro growth of MLL-AF9 with MCT4-KO” value (MLL-AF9 AML [1]) was “increased the effect”.

For `CC(C)N(C[C@H]1O[C@@H](n2cnc3c(N)ncnc32)[C@H](O)[C@@H]1O)[C@H]1C[C@@H](CCc2nc3cc(C(C)(C)C)ccc3[nH]2)C1` [EPZ-5676], the MCT4 expression [2] was “not seen”.

With `CCCc1c(O)c(O)c(C(=O)O)c2cc(Cc3ccccc3)c(C)cc12` [FX11] the “extracellular acidification rate (ECAR)” value (MLL-AF9 AML [3]) was “decreased” and the “oxygen consumption rate (OCR)” value (MLL-AF9 AML [3]) was “increased”.

With `Cc1sc2c(c1C)C(c1ccc(Cl)cc1)=N[C@@H](CC(=O)OC(C)(C)C)c1nnc(C)n1-2` [JQ-1] the “expression of MCT4” value (MCT4 expression in THP-1) was “suppressed”, the “growth of MLL-AF9 AML” value (MLL-AF9 AML [1]; JQ-1 treatment (FIG. 9H)) was “reduced the growth of MLL-AF9 AML in dose dependent manner” and the growth (NOMO-1) was “suppressed”. For the same molecule, the MCT4 expression [2] was “suppressed”, the “expression of MCT4” value [4] was “suppressed” and the growth (THP-1) was “suppressed”. The “BRD4 enrichment on the MCT4 promoter” value ([5]; mouse MLL-AF9 AML (FIG. 9I)) was “reduced” and the “H3K27ac enrichment on the MCT4 promoter” value ([5]; mouse MLL-AF9 AML (FIG. 9J)) was “reduced”.
